Test results reported in PubChem BioAssay AID1963980 (Molecular Pharmacology Branch, DTP, NCI, 2024).

Test system: 475296-252-R-J1-PDC spheroid viability
Test: Anticancer human tumor 475296-252-R-J1-PDC patient-derived rectal carcinoma cell line growth inhibition [PI3K]
Settings: spheroids with HUVEC and MSC; for IC50: curve of first compound; for viability, T/C: stronger effect = lower value; active = viability on the fitted dose curve at most 10% of control; inactive = the rest
Procedure, shortened: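 Combination activity was assessed by viability in multicellular tumor spheroids carrying HUVEC and MSC components. Agents were tested with PI3K inhibitors from a Cmax-based top dose (or 10 microM) downward in half-log increments.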

[1] = second compound 0.00316 µM, first compound 0.0316 µM
[2] = second compound 0.00316 µM, first compound 0.1 µM
[3] = second compound 0.00316 µM, first compound 0.316 µM
[4] = second compound 0.00316 µM, first compound 1 µM
[5] = second compound 0.00316 µM, first compound 3.16 µM
[6] = second compound 0.00316 µM, first compound 10 µM
[7] = second compound 0.01 µM, first compound 0.0316 µM
[8] = second compound 0.01 µM, first compound 0.1 µM
[9] = second compound 0.01 µM, first compound 0.316 µM
[10] = second compound 0.01 µM, first compound 1 µM
[11] = second compound 0.01 µM, first compound 3.16 µM
[12] = second compound 0.01 µM, first compound 10 µM
[13] = second compound 0.0316 µM, first compound 0.0316 µM
[14] = second compound 0.0316 µM, first compound 0.1 µM
[15] = second compound 0.0316 µM, first compound 0.316 µM
[16] = second compound 0.0316 µM, first compound 1 µM
[17] = second compound 0.0316 µM, first compound 3.16 µM
[18] = second compound 0.0316 µM, first compound 10 µM
[19] = second compound 0.1 µM, first compound 0.0316 µM
[20] = second compound 0.1 µM, first compound 0.1 µM
[21] = second compound 0.1 µM, first compound 0.316 µM
[22] = second compound 0.1 µM, first compound 1 µM
[23] = second compound 0.1 µM, first compound 3.16 µM
[24] = second compound 0.1 µM, first compound 10 µM
[25] = second compound 0.316 µM, first compound 0.0316 µM
[26] = second compound 0.316 µM, first compound 0.1 µM
[27] = second compound 0.316 µM, first compound 0.316 µM
[28] = second compound 0.316 µM, first compound 1 µM
[29] = second compound 0.316 µM, first compound 3.16 µM
[30] = second compound 0.316 µM, first compound 10 µM
[31] = second compound 1 µM, first compound 0.0316 µM
[32] = second compound 1 µM, first compound 0.1 µM
[33] = second compound 1 µM, first compound 0.316 µM
[34] = second compound 1 µM, first compound 1 µM
[35] = second compound 1 µM, first compound 3.16 µM
[36] = second compound 1 µM, first compound 10 µM
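Note: spheroids exposed to agents for seven days before readout.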

C=CC(=O)N1CCN(c2nc(=O)n(-c3c(C)ccnc3C(C)C)c3nc(-c4c(O)cccc4F)c(F)cc23)C(C)C1 (stereo unspecified) + CC(Nc1ccc2c(c1)OCCn1cc(N3C(=O)OCC3C(F)F)nc1-2)C(N)=O
> 10 µM: IC50 (second compound 0.00316 µM) | IC50 (second compound 0.01 µM) | IC50 (second compound 0.0316 µM) | IC50 (second compound 0.1 µM) | IC50 (second compound 0.316 µM) | IC50 (second compound 1 µM)
inactive: viability, T/C [1] 83.8% | viability, T/C [2] 89.9% | viability, T/C [3] 89.4% | viability, T/C [4] 92.5% | viability, T/C [5] 102% | viability, T/C [6] 110% | viability, T/C [7] 90.2% | viability, T/C [8] 84.9% | viability, T/C [9] 101% | viability, T/C [10] 102% | viability, T/C [11] 102% | viability, T/C [12] 97.8% | viability, T/C [13] 88.3% | viability, T/C [14] 97.2% | viability, T/C [15] 91.2% | viability, T/C [16] 90.2% | viability, T/C [17] 99% | viability, T/C [18] 96.3% | viability, T/C [19] 83.7% | viability, T/C [20] 92.2% | viability, T/C [21] 96.5% | viability, T/C [22] 103% | viability, T/C [23] 94% | viability, T/C [24] 98.6% | viability, T/C [25] 77.5% | viability, T/C [26] 90.8% | viability, T/C [27] 88% | viability, T/C [28] 86.9% | viability, T/C [29] 83.4% | viability, T/C [30] 86.2% | viability, T/C [31] 82.7% | viability, T/C [32] 79% | viability, T/C [33] 87.5% | viability, T/C [34] 83.5% | viability, T/C [35] 86.6% | viability, T/C [36] 81.3%

CC(Cn1ccc(-c2ccc(C#N)c(Cl)c2)n1)NC(=O)c1cc(C(C)O)[nH]n1 (stereo unspecified) + CC(Nc1ccc2c(c1)OCCn1cc(N3C(=O)OCC3C(F)F)nc1-2)C(N)=O
inactive: viability, T/C [1] 110% | viability, T/C [2] 96.5% | viability, T/C [3] 93.9% | viability, T/C [4] 83.8% | viability, T/C [5] 106% | viability, T/C [6] 95.2% | viability, T/C [7] 101% | viability, T/C [8] 94% | viability, T/C [9] 98.8% | viability, T/C [10] 88.4% | viability, T/C [11] 98.4% | viability, T/C [12] 103% | viability, T/C [13] 87.1% | viability, T/C [14] 102% | viability, T/C [15] 91.3% | viability, T/C [16] 90.9% | viability, T/C [17] 97.5% | viability, T/C [18] 103% | viability, T/C [19] 84.6% | viability, T/C [20] 93.4% | viability, T/C [21] 101% | viability, T/C [22] 90.9% | viability, T/C [23] 95.3% | viability, T/C [24] 98.4% | viability, T/C [25] 84% | viability, T/C [26] 107% | viability, T/C [27] 91% | viability, T/C [28] 89.7% | viability, T/C [29] 90.8% | viability, T/C [30] 89.5% | viability, T/C [31] 92% | viability, T/C [32] 83.1% | viability, T/C [33] 87.9% | viability, T/C [34] 93.5% | viability, T/C [35] 80.6% | viability, T/C [36] 83.4%
> 10 µM: IC50 (second compound 0.00316 µM) | IC50 (second compound 0.01 µM) | IC50 (second compound 0.0316 µM) | IC50 (second compound 0.1 µM) | IC50 (second compound 0.316 µM) | IC50 (second compound 1 µM)

Cn1nccc1Nc1nccc(-c2ccn(C(CO)c3ccc(Cl)c(F)c3)c(=O)c2)n1 (stereo unspecified) + CC(Nc1ccc2c(c1)OCCn1cc(N3C(=O)OCC3C(F)F)nc1-2)C(N)=O
3.52 µM: IC50 (second compound 1 µM)
inactive: viability, T/C [1] 92.9% | viability, T/C [2] 92.8% | viability, T/C [3] 99.3% | viability, T/C [4] 91.6% | viability, T/C [5] 90.3% | viability, T/C [6] 80.9% | viability, T/C [7] 96.8% | viability, T/C [8] 97.9% | viability, T/C [9] 94.4% | viability, T/C [10] 89.1% | viability, T/C [11] 92.1% | viability, T/C [12] 74% | viability, T/C [13] 101% | viability, T/C [14] 105% | viability, T/C [15] 95.7% | viability, T/C [16] 85.8% | viability, T/C [17] 82.9% | viability, T/C [18] 74.7% | viability, T/C [19] 87.6% | viability, T/C [20] 94.7% | viability, T/C [21] 76.8% | viability, T/C [22] 83.7% | viability, T/C [23] 73.3% | viability, T/C [24] 58.1% | viability, T/C [25] 81.1% | viability, T/C [26] 87.4% | viability, T/C [27] 83.1% | viability, T/C [28] 77.2% | viability, T/C [29] 61.1% | viability, T/C [30] 43.1% | viability, T/C [31] 84.1% | viability, T/C [32] 81% | viability, T/C [33] 87.1% | viability, T/C [34] 67.9% | viability, T/C [35] 53.3% | viability, T/C [36] 31.4%
6.42 µM: IC50 (second compound 0.316 µM)
> 10 µM: IC50 (second compound 0.00316 µM) | IC50 (second compound 0.01 µM) | IC50 (second compound 0.0316 µM) | IC50 (second compound 0.1 µM)
